Assay results published in patent US11571420B2 (priority 2018, dated 2023).

Biological target: hADORA1/CHO (hA1 expressing) cells (Homo sapiens (Human), UniProt P30542)
Test: FLIPR calcium inhibition assay in hADORA1/CHO (hA1 expressing) cells, 10 M adenosine
Type: cell-based
Conditions: read-out: cAMP & FLIPR IC50 (nM) hA1
Experimental: hADORA1/CHO (hA1 expressing) cells (Genscript) were plated at 1×10^4 cells/well into 384-well polystyrene plates one day before starting the experiment. On the day of experiment, the supernatant was discard and replaced with 40 μL of dye (FLIPR calcium 5 Assay Kit) per well and the plates were incubated for 60 mins at 37° C. plus 5% CO2. Then testing compounds were added at different concentrations for FLIPR™ inhibition assay. After a 400 s incubation with compound, […] adenosine was added into the cells, and the signal was captured by FLIPR.

Chain of hADORA1/CHO (hA1 expressing) cells (P30542 whole entry): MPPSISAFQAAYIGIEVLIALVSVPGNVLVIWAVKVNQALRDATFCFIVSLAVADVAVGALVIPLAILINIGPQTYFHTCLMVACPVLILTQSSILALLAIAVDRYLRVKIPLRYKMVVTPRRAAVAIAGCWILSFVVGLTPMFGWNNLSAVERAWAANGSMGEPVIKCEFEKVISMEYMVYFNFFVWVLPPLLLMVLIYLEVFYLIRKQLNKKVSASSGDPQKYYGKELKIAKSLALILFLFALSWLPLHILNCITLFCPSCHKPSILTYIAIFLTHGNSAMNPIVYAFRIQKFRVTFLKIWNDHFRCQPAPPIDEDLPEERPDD

Work on `Cc1cnc2ccc(-c3nc(C(=O)NCC4CCCCN4C)c(N)nc3-c3ncco3)cn12` (single isomer, unassigned; isomer 2) [Example 125, 3-amino-6-(3-methylimidazo[1,2-a]pyridin-6-yl)-N-((1-methylpiperidin-2-yl)methyl)-5-(oxazol-2-yl)pyrazine-2-carboxamide (isomer 2)] yielded an IC50 of 10000 nM.
